Measurements as given in patent US9868692B2, “Compounds and compositions for intracellular delivery of therapeutic agents” (MODERNATX, Inc., priority 2015, dated 2018).

test system: luciferase (Luc) mRNA expression; assay: Luc expression (total flux, bioluminescence) after intravenous administration to mice; format: in vivo; details: i.v., 0.5 mg/kg, 3, 6 and 24 hours, versus other compositions
Method: In order to monitor how effectively various nanoparticle compositions deliver therapeutic and/or prophylactics to targeted cells, different nanoparticle compositions including a particular therapeutic and/or prophylactic (for example, a modified or naturally occurring RNA such as an mRNA) are prepared and administered to rodent populations. Mice are intravenously, intramuscularly, intraarterially, or intratumorally administered a single dose including a nanoparticle composition with a formulation such as those provided in Example 3. In some instances, mice may be made to inhale doses. Dose sizes may range from 0.001 mg/kg to 10 mg/kg, where 10 mg/kg describes a dose including 10 mg of a therapeutic and/or prophylactic in a nanoparticle composition for each 1 kg of body mass of the mouse. A control composition including PBS may also be employed.
Upon administration of nanoparticle compositions to mice, dose delivery profiles, dose responses, and toxicity of particular formulations and doses thereof can be measured by enzyme-linked immunosorbent assays (ELISA), bioluminescent imaging, or other methods. For nanoparticle compositions including mRNA, time courses of protein expression can also be evaluated. Samples collected from the rodents for evaluation may include blood, sera, and tissue (for example, muscle tissue from the site of an intramuscular injection and internal tissue); sample collection may involve sacrifice of the animals.
The efficacy of the nanoparticle compositions presented in Table 1A was evaluated with a bioluminescence study. Formulations were administered intravenously to mice (n=6) at a dosage of 0.5 mg/kg (mpk) and bioluminescence measured at 3, 6, and 24 hour time points. The standard MC3 formulation and, in some instances, a control (e.g., a PBS control) were evaluated for comparison. […] In general, flux decreased as time progressed to less than 10% of the initial flux.
The total flux (measured by area under the curve, AUC) induced by administration of a formulation including a given lipid relative to that induced by administration of a formulation including MC3 was also measured for several lipids.

| Compound | flux at all time points measured |
| --- | --- |
| CCCCCCCCCOC(=O)CCCCCCCN(CCCCCCCC(=O)OC(CCCCCCCC)CCCCCCCC)CCOC(C)=O [Compound 9, Heptadecan-9-yl 8-((2-acetoxyethyl)(8-(nonyloxy)-8-oxooctyl)amino) octanoate] | significantly lower flux |
| CCCCCCCCCOC(=O)CCCCCCCN(CCCCCCCC(=O)OC(CCCCCCCC)CCCCCCCC)CCOCCN(C)C [Compound 17, Heptadecan-9-yl 8-((2-(2-(dimethylamino)ethoxy)ethyl)(8-(nonyloxy)-8-oxooctyl)amino)octanoate] | significantly lower flux |
| CCCCCCCCCOC(=O)CCCCCCCN(CCO)CCCCCCCC(=O)OC(CCCC)CCCC [Compound 57, nonan-5-yl 8-((2-hydroxyethyl)(8-(nonyloxy)-8-oxooctyl)amino) octanoate] | significantly lower flux |
| CCCCCCCCCOC(=O)CCCCCCCN(CCO)CCCCCCCC(=O)OC(CCC)CCC [Compound 58, heptan-4-yl 8-((2-hydroxyethyl)(8-(nonyloxy)-8-oxooctyl)amino) octanoate] | significantly lower flux |
| CCCCCCCCCOC(=O)CCCCCCCN(CCO)CCCCCCCC(=O)OC(CC)CC [Compound 59, nonyl 8-((2-hydroxyethyl)(8-oxo-8-(pentan-3-yloxy)octyl)amino) octanoate] | significantly lower flux |
| CCCCCCCCCOC(=O)CCCCCCCN(CCCCCCCC(=O)OC(CCCCCCCC)CCCCCCCC)CCC(=O)O [Compound 125, 3-((8-(Heptadecan-9-yloxy)-8-oxooctyl)(8-(nonyloxy)-8-oxooctyl)amino)propanoic acid] | significantly lower flux |
| CCCCCCCC/C=C\COC(=O)CCCCCN(CCO)CCCCCC(=O)OC/C=C\CCCCCCCC [Compound 140, Di((Z)-undec-2-en-1-yl) 6,6′-((2-hydroxyethyl)azanediyl)dihexanoate] | significantly lower flux |
| CCCCCCCCCCCOC(=O)CCCCCN(CCO)CCCCCC(=O)OCCCCCCCCCCC [Compound 141, Diundecyl 6,6′-((2-hydroxyethyl)azanediyl)dihexanoate] | significantly lower flux |
| CCCCCCCCCOC(=O)CCCCCCCN(CCO)CCCCCCCC(=O)OC(C)(C)C [Compound 158, tert-Butyl 8-((2-hydroxyethyl)(8-(nonyloxy)-8-oxooctyl)amino)octanoate] | significantly lower flux |
